Experimental data published in ChEMBL document CHEMBL5579898, “Between Theory and Practice: Computational/Experimental Integrated Approaches to Understand the Solubility and Lipophilicity of PROTACs” (J Med Chem, 2024).
Converted amounts (≈) assume the structure as drawn.

Experiments:
Assay type in all cases: physicochemical
[1] = Distribution coefficient, logD of compound in n-Octanol/PBS at pH 7.4 incubated for 30 mins under shaking condition by UV-Vis spectroscopic analysis; details: for logD: octanol/water, pH 7.4, 0.5 h, BLD = below limit of detection; for logD at 0.5 h: n-octanol/PBS, pH 7.4
[2] = Kinetic solubility of the compound in PBS buffer at 50 mM pH 7.4 incubated for 60 mins under shaking condition by UHPLC-MS analysis; details: read-out: Kinetic_solubility
[3] = Kinetic solubility of the compound in universal buffer at pH 7.4 incubated for 60 mins under shaking condition by UHPLC-MS analysis; details: read-out: Kinetic_solubility
[4] = Kinetic solubility of the compound incubated for 60 mins under shaking condition by UV-Vis spectroscopic analysis; details: 1 h
[5] = Kinetic solubility of the compound incubated for 60 mins under shaking condition by UHPLC-MS analysis; details: 1 h
[6] = Distribution coefficient, logD of compound in n-Octanol/PBS at pH 7.4 incubated for 30 mins under shaking condition by UHPLC-MS analysis
[7] = Dissociation constant, pKa of the compound

| logD [1] | solubility kinetic at 1 h [2] | solubility kinetic at 1 h [3] | log(Kinetic_solubility) [4] | log(Kinetic_solubility) [5] | logD at 0.5 h [6] | logD at 0.5 h [1] | log(Kinetic_solubility) ([4]; BLD = below limit of detection) | pKa [7] | log(Kinetic_solubility) ([5]; BLD = below limit of detection) | Structure (SMILES) |
| --- | --- | --- | --- | --- | --- | --- | --- | --- | --- | --- |
| Bld | 17 µM (≈ 15 µg/mL) | 12 µM (≈ 10.6 µg/mL) | -4.72 | -4.72 | 4.98 |  |  |  |  | Cc1ncsc1-c1ccc([C@H](C)NC(=O)[C@@H]2C[C@@H](O)CN2C(=O)[C@@H](NC(=O)CCCCNC(=O)COc2c(-c3csc(N4CCOCC4)n3)ccc(F)c2F)C(C)(C)C)cc1 |
|  |  |  |  | -6.77 | 4.27 | 3.92 | Bld |  |  | O=C1CCC(N2C(=O)c3cccc(NCCOCCOCCOCCn4cc(COc5ccc(N(C(=O)CCl)C(C(=O)NCCc6ccccc6)c6cccs6)cc5Cl)nn4)c3C2=O)C(=O)N1 (configuration not stated) |
| Bld |  | 0.05 µM (≈ 0.0392 µg/mL) |  | -7.33 | 5.5 |  | Bld | 7.98 |  | Cc1sc2c(c1C)C(c1ccc(Cl)cc1)=N[C@@H](CC(=O)NCCCCCCCCNc1cccc3c1C(=O)N(C1CCC(=O)NC1=O)C3=O)c1nnc(C)n1-2 (some centres not stated) |
| Bld |  |  |  |  | 4.93 |  | Bld |  | Bld | O=C(COc1c(-c2csc(N3CCOCC3)n2)ccc(F)c1F)NCCCCCCCCCCNc1ccc2nnn(C3CCC(=O)NC3=O)c(=O)c2c1 (configuration not stated) |
|  |  | 71 µM (≈ 59.6 µg/mL) | -4.15 | -5.15 | 3.82 | 3.3 |  | 4.49 |  | Cc1sc2c(c1C)C(c1ccc(Cl)cc1)=N[C@@H](CC(=O)NCCCN1CCN(CCCNc3cccc4c3C(=O)N(C3CCC(=O)NC3=O)C4=O)CC1)c1nnc(C)n1-2 (some centres not stated) |
| Bld |  |  | -5 | -5.14 | 4.82 |  |  |  |  | Cc1ncsc1-c1ccc([C@H](CC(=O)NCCCCCCNC(=O)COc2c(-c3csc(N4CCOCC4)n3)ccc(F)c2F)NC(=O)[C@@H]2C[C@@H](O)CN2C(=O)[C@@H](NC(=O)C2(F)CC2)C(C)(C)C)cc1 |
| Bld |  |  |  |  | 5.38 |  | Bld |  | Bld | N#Cc1ccc(O[C@H]2CC[C@H](NC(=O)c3ccc(N4CCC(CN5CCN(c6cc7c(cc6F)C(=O)N(C6CCC(=O)NC6=O)C7=O)CC5)CC4)nn3)CC2)cc1Cl (some centres not stated) [BAVDEGALUTAMIDE] |
|  |  |  | -4.21 | -4.23 | 3.9 | 3.5 |  |  |  | Cc1ncsc1-c1ccc([C@H](C)NC(=O)[C@@H]2C[C@@H](O)CN2C(=O)[C@@H](NC(=O)COCCOCCOCC(=O)N[C@H](C(=O)N2C[C@H](O)C[C@H]2C(=O)N[C@@H](C)c2ccc(-c3scnc3C)cc2)C(C)(C)C)C(C)(C)C)cc1 |
|  |  |  | -3.93 | -3.98 | 3.19 | 3.7 |  |  |  | Cc1ncsc1-c1ccc(CNC(=O)[C@@H]2C[C@@H](O)CN2C(=O)[C@@H](NC(=O)COCCOCCOCC(=O)N[C@H](C(=O)N2C[C@H](O)C[C@H]2C(=O)NCc2ccc(-c3scnc3C)cc2)C(C)(C)C)C(C)(C)C)cc1 |
| Bld |  |  |  |  | 5.2 |  | Bld |  | Bld | CCOC(=O)c1c(C)n(Cc2ccccc2)c2ccc(OCCCCCCCCCCC(=O)N[C@H](C(=O)N3C[C@H](O)C[C@H]3C(=O)N[C@@H](C)c3ccc(-c4scnc4C)cc3)C(C)(C)C)cc12 |
|  |  |  | -4.28 | -4.28 | 2.82 | 2.82 |  |  |  | O=C(COc1c(-c2csc(N3CCOCC3)n2)ccc(F)c1F)NCCOCCOCCOCCOCCNc1cccc2c1C(=O)N(C1CCC(=O)NC1=O)C2=O (configuration not stated) |
|  |  |  | -4.16 | -4.19 | 1.27 | 0.867 |  |  |  | O=C1CCC(N2C(=O)c3cccc(NCCOCCOCC(=O)N4CCN(C(=O)c5cc(Cc6n[nH]c(=O)c7ccccc67)ccc5F)CC4)c3C2=O)C(=O)N1 (configuration not stated) |
| Bld |  |  |  |  | 5.15 |  | Bld |  | Bld | CCOC(=O)c1c(C)n(Cc2ccccc2)c2ccc(OCCCCCCC(=O)N[C@H](C(=O)N3C[C@H](O)C[C@H]3C(=O)N[C@@H](C)c3ccc(-c4scnc4C)cc3)C(C)(C)C)cc12 |
|  |  |  | -4.72 | -5.05 | 2.29 | 2.17 |  |  |  | CC(=O)c1c(C)c2cnc(Nc3ccc(N4CCN(CCOCCOCCOCCNC(=O)COc5cccc6c5C(=O)N(C5CCC(=O)NC5=O)C6=O)CC4)cn3)nc2n(C2CCCC2)c1=O (configuration not stated) |
